Experimental data as given in US20210038607A1, “OXADIAZOLYLTHIOPHENE DERIVATIVES USEFUL AS HISTONE DEACETYLASE INHIBITORS” (Karus Therapeutics Limited, priority 2018, published 2021).

Legend:
[1] = biological target: T1, Complex of human HDAC3 and human NCOR2 (Homo sapiens, UniProt O15379); assay: HDAC3 biochemical assay, AMC-labeled peptide substrate; conditions: read-out: HDAC Isoform IC50 (nM) 3
T1 construct: full length with C-terminal His tag, MW=49.7 kDa; His (C); host or cells: baculovirus expression system (co-expressed)
In short: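 Baculovirus-coexpressed His-tagged full-length HDAC3 with GST-NCOR2 (aa 395-489), 0.1 ng/ul, deacetylates 50 μM RHKK(Ac)AMC in Tris-HCl pH8.0 with BSA and 1% DMSO, 1 h at 30° C. Developer then cleaves deacetylated substrate; fluorescence read at 360/460 Ex/Em.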

Human HDAC4 = biological target: T2, Human HDAC4 (Homo sapiens, UniProt P56524); assay: HDAC4 biochemical assay, class IIa-specific substrate; conditions: read-out: HDAC Isoform IC50 (nM) 4
T2 construct: amino acids 627-1085 with N-terminal GST tag; GST (N); host or cells: baculovirus expression system
In short: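 GST-tagged human HDAC4 (aa 627-1085, baculovirus) at 0.004 ng/ul was incubated 30 min at room temperature with 50 μM class IIa-specific substrate BOC-Lys(trifluoroacetyl)-AMC in Tris-HCl pH 8.0 buffer with BSA, 1% DMSO. Developer then released AMC, read at 360/460 nm.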

Human HDAC8 = biological target: T3, Human HDAC8 (Homo sapiens, UniProt Q9BY41); assay: HDAC8 biochemical assay, AMC-labeled peptide substrate; conditions: read-out: HDAC Isoform IC50 (nM) 8
T3 construct: full length with C-terminal His tag, MW=42.6 kDa; His (C); host or cells: baculovirus expression system
T3 sequence (Q9BY41 1-377): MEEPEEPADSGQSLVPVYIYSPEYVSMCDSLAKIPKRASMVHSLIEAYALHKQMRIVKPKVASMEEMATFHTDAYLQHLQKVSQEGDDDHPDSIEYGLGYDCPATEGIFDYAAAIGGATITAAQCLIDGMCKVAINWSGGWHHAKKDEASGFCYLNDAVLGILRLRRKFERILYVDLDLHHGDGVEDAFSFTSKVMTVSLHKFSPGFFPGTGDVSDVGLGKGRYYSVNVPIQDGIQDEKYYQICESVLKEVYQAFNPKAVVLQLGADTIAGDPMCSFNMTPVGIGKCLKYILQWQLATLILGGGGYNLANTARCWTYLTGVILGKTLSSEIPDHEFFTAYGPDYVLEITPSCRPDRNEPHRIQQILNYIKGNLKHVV
In short: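 Full-length human HDAC8 with C-terminal His tag, baculovirus-expressed, 1 ng/ul, with 100 µM RHK(Ac)K(Ac)AMC substrate in Tris-HCl pH8.0 buffer with BSA, 1% DMSO. Incubated 2 h at 30° C, then developer added to cleave deacetylated substrate; fluorescence read at 360/460 Ex/Em.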

[2] = test system: acetylated histone H3 in A549 lung adenocarcinoma cells; assay: Acetylated histone H3 in-cell western (ICW) assay; format: cell-based; conditions: Homo sapiens, 16 h exposure, relative to 40 μM Trichostatin A positive control, read-out: EC50 Ac-histone H3, A549 cells
Experimental: Acetylated α-Tubulin and Histone H3 in-Cell Western (ICW) Assays
A549 cells were maintained in DMEM (Life Technologies)+10% FBS+2 mM glutamine & penicillin (10 μg/mL) and streptomycin ([…]. 10,000 A549 cells per well were plated into 96 well tissue culture plates (Corning) and incubated at 37° C. overnight in a humidified atmosphere containing 5% CO2 prior to addition of compounds. Compounds (dissolved in 100% DMSO) were diluted into cell culture media at 2× final assay concentration. 2× compound or DMSO (negative control) were added to cells (final DMSO concentration 0.4%). Untreated control wells received media. For acetylated α-tubulin assays, 40 μM scriptaid was used as a positive control. For acetylated histone H3 assays, 40 μM Trichostatin A (TSA) was used as a positive control. Cells were exposed to compound at 37° C. in a humidified atmosphere containing 5% CO2 for 16 h.
Measurement of the impact of compounds on levels of acetylated α-tubulin and histone H3 was performed using specific antibodies and near-infrared immunofluorescent dyes. Briefly, media was removed from wells of assay plates. Cells were washed once with PBS and fixed in 3.7% formaldehyde PBS solution at room temperature for 20 min. Cells were then permeabilised by washing 5 times in 0.1% triton-X-100 PBS at room temperature with gentle agitation for 5 min per wash. Non-specific antibody staining was blocked by the addition of Odyssey blocking buffer (Li-Cor) for 1.5 h at room temperature with gentle agitation. Cells were then incubated with primary antibody (mouse monoclonal anti-acetylated α-tubulin (clone 6-11B-1), Sigma or rabbit polyclonal anti-acetylated histone H3, Millipore) diluted in Odyssey blocking buffer at 4° C. with gentle shaking overnight (no antibody control and secondary antibody only wells were incubated with Odyssey blocking buffer only). Cells were washed five times with 0.1% tween PBS and labelled with secondary antibody (IR dye 800CW-conjugated goat anti mouse IgG or -goat anti rabbit IgG, Li-Cor) and cell stains Sapphire700 (Li-Cor) and Draq5 (Biostatus) diluted in Odyssey blocking buffer at room temperature in the dark with gentle shaking for 1 h (no antibody control wells were incubated with Odyssey blocking buffer only and secondary antibody only with diluted secondary antibody but no cell stains). Cells were washed with 0.1% Tween PBS five times and scanned using a Li-Cor Odyssey SA plate reader in 700 and 800 nm channels. Acetylated α-tubulin or histone H3 signal was normalised to cell number using the cell stain signal. Percentage increase in acetylated α-tubulin or histone H3 after compound treatment over the mean of DMSO treated controls, relative to scriptaid and TSA positive controls, respectively was calculated. EC50 values were calculated using GraphPad Prism software and nonlinear regression with 0% bottom and 100% top constraints.

T2 sequence (P56524 627-1084 limits assumed): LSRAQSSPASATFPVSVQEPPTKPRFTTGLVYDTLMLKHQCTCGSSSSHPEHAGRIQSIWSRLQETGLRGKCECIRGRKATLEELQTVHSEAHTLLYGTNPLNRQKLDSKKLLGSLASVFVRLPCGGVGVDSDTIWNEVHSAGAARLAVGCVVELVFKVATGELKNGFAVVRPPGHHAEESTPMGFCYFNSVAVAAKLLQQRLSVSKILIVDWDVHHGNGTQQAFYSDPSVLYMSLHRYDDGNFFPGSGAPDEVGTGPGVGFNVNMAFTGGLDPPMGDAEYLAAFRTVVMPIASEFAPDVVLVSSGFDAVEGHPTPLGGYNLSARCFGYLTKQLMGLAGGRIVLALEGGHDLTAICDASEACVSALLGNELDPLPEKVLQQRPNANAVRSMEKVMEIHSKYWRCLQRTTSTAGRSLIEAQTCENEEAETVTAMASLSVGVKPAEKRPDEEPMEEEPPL
T1 sequence (O15379 whole entry, canonical isoform): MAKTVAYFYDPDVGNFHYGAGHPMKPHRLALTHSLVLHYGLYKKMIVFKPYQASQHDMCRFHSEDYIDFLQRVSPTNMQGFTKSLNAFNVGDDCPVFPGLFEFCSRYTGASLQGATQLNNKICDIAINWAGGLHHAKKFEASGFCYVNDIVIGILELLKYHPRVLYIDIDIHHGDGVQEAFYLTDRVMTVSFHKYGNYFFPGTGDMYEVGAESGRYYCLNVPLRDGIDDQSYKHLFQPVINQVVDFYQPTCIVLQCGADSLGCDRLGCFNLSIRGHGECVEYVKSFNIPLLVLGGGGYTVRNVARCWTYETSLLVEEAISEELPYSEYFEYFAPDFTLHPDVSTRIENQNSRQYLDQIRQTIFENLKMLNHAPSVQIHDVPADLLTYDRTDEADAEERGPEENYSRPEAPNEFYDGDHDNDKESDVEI
T1 sequence (Q9Y618 395-489 partner limits assumed): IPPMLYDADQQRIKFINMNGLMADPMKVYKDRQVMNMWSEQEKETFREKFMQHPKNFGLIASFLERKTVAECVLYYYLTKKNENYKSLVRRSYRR

Row | IC50 [1] [nM] | IC50 (Human HDAC4) [nM] | IC50 (Human HDAC8) [nM] | EC50 [2] [µM] | SMILES
1 | ≤ 10000 | ≤ 500 | ≤ 10000 | ≥ 10 | O=C(c1ccc(N(Cc2ccc(-c3noc(C(F)(F)F)n3)s2)c2cnccn2)nn1)N1CCC1 [Example FF, 6-(Azetidine-1-carbonyl)-N-(pyrazin-2-yl)-N-({5-[5-(trifluoromethyl)-1,2,4-oxadiazol-3-yl]thiophen-2-yl}methyl)pyridazin-3-amine]
2 | > 10000 | ≤ 1000 | ≤ 10000 | ≥ 10 | Cc1cnc(N(Cc2ccc(-c3noc(C(F)(F)F)n3)s2)c2cnccn2)cn1 [Example BH, 5-Methyl-N-(pyrazin-2-yl)-N-({5-[5-(trifluoromethyl)-1,2,4-oxadiazol-3-yl]thiophen-2-yl}methyl)pyrazin-2-amine]
3 | ≤ 10000 | ≤ 500 | ≤ 1000 | ≥ 10 | O=C(c1ccc(N(Cc2ccc(-c3noc(C(F)(F)F)n3)s2)c2cnccn2)nn1)N1CCCC1 [Example FI, N-(Pyrazin-2-yl)-6-(pyrrolidine-1-carbonyl)-N-({5-[5-(trifluoromethyl)-1,2,4-oxadiazol-3-yl]thiophen-2-yl}methyl)pyridazin-3-amine]
4 | ≤ 10000 | ≤ 500 | ≤ 10000 | ≥ 10 | O=C(c1ccc(N(Cc2ccc(-c3noc(C(F)(F)F)n3)s2)c2cnccn2)nn1)N1CCOCC1 [Example DS, 6-(Morpholine-4-carbonyl)-N-(pyrazin-2-yl)-N-({5-[5-(trifluoromethyl)-1,2,4-oxadiazol-3-yl]thiophen-2-yl}methyl)pyridazin-3-amine]
5 | > 10000 | ≤ 10000 | ≤ 10000 | ≥ 10 | O=C(O)c1cnnc(N(Cc2ccc(-c3noc(C(F)(F)F)n3)s2)c2cnccn2)c1 [Example DW, 6-[(Pyrazin-2-yl)({5-[5-(trifluoromethyl)-1,2,4-oxadiazol-3-yl]thiophen-2-yl}methyl)amino]pyridazine-4-carboxylic acid]
6 | ≤ 10000 | ≤ 500 | ≤ 1000 | ≥ 10 | O=C(c1ccc(N(Cc2ccc(-c3noc(C(F)(F)F)n3)s2)c2cnccn2)nn1)N1CC(O)(C(F)(F)F)C1 [Example FK, 1-{6-[(Pyrazin-2-yl)({5-[5-(trifluoromethyl)-1,2,4-oxadiazol-3-yl]thiophen-2-yl}methyl)amino]pyridazine-3-carbonyl}-3-(trifluoromethyl)azetidin-3-ol]
7 | > 10000 | ≤ 1000 | ≤ 10000 | ≥ 10 | FC(F)(F)c1nc(-c2ccc(CN(c3cnccn3)c3cnccn3)s2)no1 [Example BA, N-(Pyrazin-2-yl)-N-({5-[5-(trifluoromethyl)-1,2,4-oxadiazol-3-yl]thiophen-2-yl}methyl)pyrazin-2-amine]
8 | > 10000 | ≤ 1000 | ≤ 10000 | ≥ 10 | FC(F)(F)c1nc(-c2ccc(CN(c3cnccn3)c3ccc(CN4CCOCC4)nn3)s2)no1 [Example FN, 6-[(Morpholin-4-yl)methyl]-N-(pyrazin-2-yl)-N-({5-[5-(trifluoromethyl)-1,2,4-oxadiazol-3-yl]thiophen-2-yl}methyl)pyridazin-3-amine]
9 | ≤ 10000 | ≤ 500 | ≤ 10000 | ≥ 10 | NC(=O)c1ccc(N(Cc2ccc(-c3noc(C(F)(F)F)n3)s2)c2cnccn2)nn1 [Example DQ, 6-[(Pyrazin-2-yl)({5-[5-(trifluoromethyl)-1,2,4-oxadiazol-3-yl]thiophen-2-yl}methyl)amino]pyridazine-3-carboxamide]
10 | > 10000 | ≤ 10000 | ≤ 10000 | ≥ 10 | O=C(O)c1cnnc(N(Cc2ccc(-c3noc(C(F)(F)F)n3)s2)c2cc(C(F)(F)F)cnn2)c1 [Example ES, 6-[({5-[5-(Trifluoromethyl)-1,2,4-oxadiazol-3-yl]thiophen-2-yl}methyl)[5-(trifluoromethyl)pyridazin-3-yl]amino]pyridazine-4-carboxylicacid]
11 | ≤ 10000 | ≤ 1000 | ≤ 10000 | ≥ 10 | O=C(c1cnnc(N(Cc2ccc(-c3noc(C(F)(F)F)n3)s2)c2cnccn2)c1)N1CC(C(F)F)C1 [Example GK, 5-[3-(Difluoromethyl)azetidine-1-carbonyl]-N-(pyrazin-2-yl)-N-({5-[5-(trifluoromethyl)-1,2,4-oxadiazol-3-yl]thiophen-2-yl}methyl)pyridazin-3-amine]
12 | ≤ 10000 | ≤ 500 | ≤ 10000 | ≥ 10 | O=C(c1ccc(N(Cc2ccc(-c3noc(C(F)(F)F)n3)s2)c2cnccn2)nn1)N1CC[S+]([O-])CC1 [Example FD, 4-{6-[(Pyrazin-2-yl)({5-[5-(trifluoromethyl)-1,2,4-oxadiazol-3-yl]thiophen-2-yl}methyl)amino]pyridazine-3-carbonyl}-1lambda4-thiomorpholin-1-one]
13 | ≤ 10000 | ≤ 500 | ≤ 10000 | ≥ 10 | COC1CN(C(=O)c2ccc(N(Cc3ccc(-c4noc(C(F)(F)F)n4)s3)c3cnccn3)nn2)C1 [Example DR, 6-(3-Methoxyazetidine-1-carbonyl)-N-(pyrazin-2-yl)-N-({5-[5-(trifluoromethyl)-1,2,4-oxadiazol-3-yl]thiophen-2-yl}methyl)pyridazin-3-amine]
14 | > 10000 | ≤ 10000 | ≤ 10000 | ≥ 10 | COC1CN(Cc2ccnc(N(Cc3ccc(-c4noc(C(F)(F)F)n4)s3)c3cnccn3)c2)C1 [Example GH, N-{4-[(3-Methoxyazetidin-1-yl)methyl]pyridin-2-yl}-N-({5-[5-(trifluoromethyl)-1,2,4-oxadiazol-3-yl]thiophen-2-yl}methyl)pyrazin-2-amine]
15 | > 10000 | ≤ 10000 | ≤ 10000 | ≥ 10 | COC1CN(C(=O)c2cnnc(N(Cc3ccc(-c4noc(C(F)(F)F)n4)s3)c3cnccn3)c2)C1 [Example DZ, 5-(3-Methoxyazetidine-1-carbonyl)-N-(pyrazin-2-yl)-N-({5-[5-(trifluoromethyl)-1,2,4-oxadiazol-3-yl]thiophen-2-yl}methyl)pyridazin-3-amine]
